Measurements taken from US12077503B2, “Substituted cyclic amides and their use as herbicides” (FMC CORPORATION, priority 2015, dated 2024).

How the values were obtained:
Type in all cases: in vivo
[1] = system: barnyardgrass (Echinochloa crus-galli); assay: Test A postemergence; settings: Echinochloa crus-galli, post-emergence, 240 h, Postemergence; for pest or weed control at 125 g/ha: 125 g ai/ha, visual rating about 10 d after treatment, read-out: Barnyardgrass plant response rating (0 to 100 scale, 0 no effect, 100 complete control); for pest or weed control at 31 g/ha: 31 g ai/ha, 0 is no effect, 100 is complete control, read-out: Barnyardgrass plant response rating (0 to 100 scale)
Procedure, shortened: (§1)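 In a loam soil and sand blend, planted seeds got a preemergence directed soil spray, and young plants at the one- to two-leaf stage, 2–10 cm high, got a postemergence application; ~10 d greenhouse hold; injury rated visually, 0 = none, 100 = complete control.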

[2] = system: blackgrass (Alopecurus myosuroides); assay: Test A postemergence; settings: Alopecurus myosuroides, post-emergence, 240 h, Postemergence, read-out: Blackgrass plant response rating (0 to 100 scale); for pest or weed control at 125 g/ha: 125 g ai/ha, visual rating about 10 d after treatment; for pest or weed control at 31 g/ha: 31 g ai/ha, 0 is no effect, 100 is complete control
Procedure, shortened: as §1

[3] = system: giant foxtail (Setaria faberii); assay: Test A postemergence; settings: Setaria faberi, post-emergence, 240 h, Postemergence, read-out: Foxtail, Giant plant response rating (0 to 100 scale); for pest or weed control at 125 g/ha: 125 g ai/ha, visual rating about 10 d after treatment; for pest or weed control at 31 g/ha: 31 g ai/ha, 0 is no effect, 100 is complete control
Procedure, shortened: as §1

[4] = system: Kochia (Kochia scoparia); assay: Test A postemergence; settings: Bassia scoparia, post-emergence, 240 h, Postemergence, read-out: Kochia plant response rating (0 to 100 scale); for pest or weed control at 125 g/ha: 125 g ai/ha, visual rating about 10 d after treatment; for pest or weed control at 31 g/ha: 31 g ai/ha, 0 is no effect, 100 is complete control
Procedure, shortened: as §1

[5] = system: pigweed (Amaranthus retroflexus); assay: Test A postemergence; settings: Amaranthus retroflexus, post-emergence, 240 h, Postemergence, read-out: Pigweed plant response rating (0 to 100 scale); for pest or weed control at 125 g/ha: 125 g ai/ha, visual rating about 10 d after treatment; for pest or weed control at 31 g/ha: 31 g ai/ha, 0 is no effect, 100 is complete control
Procedure, shortened: as §1

[6] = system: ryegrass, Italian (Italian ryegrass, Lolium multiflorum); assay: Test A postemergence; settings: Lolium multiflorum, post-emergence, 240 h, Postemergence, read-out: Ryegrass, Italian plant response rating (0 to 100 scale); for pest or weed control at 125 g/ha: 125 g ai/ha, visual rating about 10 d after treatment; for pest or weed control at 31 g/ha: 31 g ai/ha, 0 is no effect, 100 is complete control
Procedure, shortened: as §1

[7] = system: ragweed (common ragweed, Ambrosia elatior); assay: Test A postemergence; settings: Ambrosia artemisiifolia, post-emergence, 240 h, Postemergence, read-out: Ragweed plant response rating (0 to 100 scale); for pest or weed control at 125 g/ha: 125 g ai/ha, visual rating about 10 d after treatment; for pest or weed control at 31 g/ha: 31 g ai/ha, 0 is no effect, 100 is complete control
Procedure, shortened: as §1

[8] = system: corn (Zea mays); assay: Test A postemergence; settings: Zea mays, post-emergence, 240 h, Postemergence, read-out: Corn plant response rating (0 to 100 scale); for plant injury at 125 g/ha: 125 g ai/ha, visual rating about 10 d after treatment; for plant injury at 31 g/ha: 31 g ai/ha, 0 is no effect, 100 is complete control
Procedure, shortened: as §1

[9] = system: wheat (Triticum aestivum); assay: Test A postemergence; settings: Triticum aestivum, post-emergence, 240 h, Postemergence, read-out: Wheat plant response rating (0 to 100 scale); for plant injury at 125 g/ha: 125 g ai/ha, visual rating about 10 d after treatment; for plant injury at 31 g/ha: 31 g ai/ha, 0 is no effect, 100 is complete control
Procedure, shortened: as §1

[10] = system: Galium (catchweed bedstraw, Galium aparine); assay: Test A postemergence; settings: Galium, post-emergence, 240 h, Postemergence, read-out: Galium plant response rating (0 to 100 scale); for pest or weed control at 125 g/ha: 125 g ai/ha, visual rating about 10 d after treatment; for pest or weed control at 31 g/ha: 31 g ai/ha, 0 is no effect, 100 is complete control
Procedure, shortened: as §1

[11] = system: barnyardgrass (Echinochloa crus-galli); assay: Test A preemergence; settings: Echinochloa crus-galli, pre-emergence, 240 h, 0 to 100 scale where 0 is no effect and 100 is complete control, read-out: Barnyardgrass plant response rating; for pest or weed control at 31 g/ha: 31 g ai/ha, Preemergence; for pest or weed control at 125 g/ha: 125 g ai/ha, preemergence, visual injury rating, approximately 10 d
Procedure, shortened: as §1

[12] = system: giant foxtail (Setaria faberii); assay: Test A preemergence; settings: Setaria faberi, pre-emergence, 240 h, 0 to 100 scale where 0 is no effect and 100 is complete control, read-out: Foxtail, Giant plant response rating; for pest or weed control at 31 g/ha: 31 g ai/ha, Preemergence; for pest or weed control at 125 g/ha: 125 g ai/ha, preemergence, visual injury rating, approximately 10 d
Procedure, shortened: as §1

[13] = system: Kochia (Kochia scoparia); assay: Test A preemergence; settings: Bassia scoparia, pre-emergence, 240 h, 0 to 100 scale where 0 is no effect and 100 is complete control, read-out: Kochia plant response rating; for pest or weed control at 31 g/ha: 31 g ai/ha, Preemergence; for pest or weed control at 125 g/ha: 125 g ai/ha, preemergence, visual injury rating, approximately 10 d
Procedure, shortened: as §1

[14] = system: pigweed (Amaranthus retroflexus); assay: Test A preemergence; settings: Amaranthus retroflexus, pre-emergence, 240 h, 0 to 100 scale where 0 is no effect and 100 is complete control, read-out: Pigweed plant response rating; for pest or weed control at 31 g/ha: 31 g ai/ha, Preemergence; for pest or weed control at 125 g/ha: 125 g ai/ha, preemergence, visual injury rating, approximately 10 d
[15] = system: ryegrass, Italian (Italian ryegrass, Lolium multiflorum); assay: Test A preemergence; settings: Lolium multiflorum, pre-emergence, 240 h, 0 to 100 scale where 0 is no effect and 100 is complete control, read-out: Ryegrass, Italian plant response rating; for pest or weed control at 31 g/ha: 31 g ai/ha, Preemergence; for pest or weed control at 125 g/ha: 125 g ai/ha, preemergence, visual injury rating, approximately 10 d
Procedure, shortened: as §1

[16] = system: ragweed (common ragweed, Ambrosia elatior); assay: Test A preemergence; settings: Ambrosia artemisiifolia, pre-emergence, 240 h, 0 to 100 scale where 0 is no effect and 100 is complete control, read-out: Ragweed plant response rating; for pest or weed control at 31 g/ha: 31 g ai/ha, Preemergence; for pest or weed control at 125 g/ha: 125 g ai/ha, preemergence, visual injury rating, approximately 10 d
Procedure, shortened: as §1

[17] = system: sedge, umbrella (small-flower umbrella sedge, Cyperus difformis); assay: Test B flooded paddy test; settings: Cyperus difformis, 250 g ai/ha, Flood; 0 to 100 scale where 0 is no effect and 100 is complete control; read-out: Sedge, Umbrella plant response rating
Procedure, shortened: (§2)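 Greenhouse paddy pots with 2-leaf stage plants received compound by direct addition to floodwater 3 cm deep, kept at that level. Scored visually at 13–15 d versus controls (0 no effect; 100 complete control).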

[18] = system: barnyardgrass (Echinochloa crus-galli); assay: Test B flooded paddy test; settings: Echinochloa crus-galli, 250 g ai/ha, Flood; 0 to 100 scale where 0 is no effect and 100 is complete control; read-out: Barnyardgrass plant response rating
Procedure, shortened: as §2

[19] = system: ducksalad (Heteranthera limosa); assay: Test B flooded paddy test; settings: Heteranthera limosa, 250 g ai/ha, Flood; 0 to 100 scale where 0 is no effect and 100 is complete control; read-out: Ducksalad plant response rating
Procedure, shortened: as §2

[20] = system: rice (Oryra sativa); assay: Test B flooded paddy test; settings: Oryza sativa, 250 g ai/ha, Flood; 0 to 100 scale where 0 is no effect and 100 is complete control; read-out: Rice plant response rating
Procedure, shortened: as §2

SMILES	pest or weed control at 125 g/ha [1] [%]	pest or weed control at 31 g/ha [1] [%]	pest or weed control at 125 g/ha [2] [%]	pest or weed control at 31 g/ha [2] [%]	pest or weed control at 125 g/ha [3] [%]	pest or weed control at 31 g/ha [3] [%]	pest or weed control at 125 g/ha [4] [%]	pest or weed control at 31 g/ha [4] [%]	pest or weed control at 125 g/ha [5] [%]	pest or weed control at 31 g/ha [5] [%]	pest or weed control at 125 g/ha [6] [%]	pest or weed control at 31 g/ha [6] [%]	pest or weed control at 125 g/ha [7] [%]	pest or weed control at 31 g/ha [7] [%]	plant injury at 125 g/ha [8] [%]	plant injury at 31 g/ha [8] [%]	plant injury at 125 g/ha [9] [%]	plant injury at 31 g/ha [9] [%]	pest or weed control at 125 g/ha [10] [%]	pest or weed control at 31 g/ha [10] [%]	other results
CN1C[C@H](c2csc3c2CCC3)[C@@H](C(=O)Nc2ccccc2F)C1=O [Compound 1277]	80	30	0	0	70	50	0	0	0	0	0	0	30	30	0	0	0	0	0	0	pest or weed control at 31 g/ha [11]: 80%; pest or weed control at 125 g/ha [11]: 100%; pest or weed control at 31 g/ha [12]: 90%; pest or weed control at 125 g/ha [12]: 100%; pest or weed control at 31 g/ha [13]: 0%; pest or weed control at 125 g/ha [13]: 0%; pest or weed control at 31 g/ha [14]: 0%; pest or weed control at 125 g/ha [14]: 0%; pest or weed control at 31 g/ha [15]: 0%; pest or weed control at 125 g/ha [15]: 0%; pest or weed control at 31 g/ha [16]: 0%; pest or weed control at 125 g/ha [16]: 0%; pest or weed control at 250 g/ha [17]: 0%; pest or weed control at 250 g/ha [18]: 40%; pest or weed control at 250 g/ha [19]: 60%; pest or weed control at 250 g/ha [20]: 25%
CN1C[C@H](c2ccc(C(F)(F)F)cc2)[C@@H](C(=O)Nc2ccccc2-n2cccn2)C1=O [Compound 1283]	0	0	0	0	0	0	0	0	0	0	0	0	0	0	0	0	0	0	0	0	pest or weed control at 31 g/ha [11]: 0%; pest or weed control at 125 g/ha [11]: 0%; pest or weed control at 31 g/ha [12]: 0%; pest or weed control at 125 g/ha [12]: 0%; pest or weed control at 31 g/ha [13]: 0%; pest or weed control at 125 g/ha [13]: 0%; pest or weed control at 31 g/ha [14]: 0%; pest or weed control at 125 g/ha [14]: 0%; pest or weed control at 31 g/ha [15]: 0%; pest or weed control at 125 g/ha [15]: 0%; pest or weed control at 31 g/ha [16]: 0%; pest or weed control at 125 g/ha [16]: 0%; pest or weed control at 250 g/ha [17]: 0%; pest or weed control at 250 g/ha [18]: 0%; pest or weed control at 250 g/ha [19]: 0%; pest or weed control at 250 g/ha [20]: 0%
